Source: US6258790A, “Antisense modulation of integrin α4 expression” (Isis Pharmaceuticals, Inc., priority 1999, dated 2001)

Test system: human integrin α4
Assay: Inhibition of human integrin α4 protein levels by antisense oligonucleotides (LIPOFECTIN, flow cytometry with CD49d-FITC) in A375 melanoma cells
Type: cell-based
Design: % Inhib.: tested at 200 nM
Conditions: for % Control (integrin α4 protein): Table 1, 200 nM oligonucleotide, 6 ug/ml LIPOFECTIN; for % CONTROL 48 hr / % INHIB 48 hr / % CONTROL 72 hr / % INHIB 72 HR: Table 2, A375; for inhibition (Example 11): Example 11 assay
Text: Integrin α4 protein levels can be quantitated in a variety of ways well known in the art, such as immunoprecipitation, Western blot analysis (immunoblotting), ELISA or fluorescence-activated cell sorting (FACS). Antibodies directed to integrin α4 can be identified and obtained from a variety of sources, such as the MSRS catalog of antibodies (Aerie Corporation, Birmingham, Mich.), or can be prepared via conventional antibody generation methods.
Target sites are indicated by nucleotide numbers, as given in the sequence source reference (GenBank accession no. L12002), to which the oligonucleotide binds. All compounds in Table 1 are 18 nucleotides in length, with a phosphorothioate backbone and a centered 10-base deoxynucleotide gap flanked by 2'-methoxyethoxy (2'MOE) wings. Human A375 melanoma cells (American Type Culture Collection, Manassas, Va.) were plated at 2000 cells/cm^2 two days before oligonucleotide treatment. Cells were treated with oligonucleotides at a dose of 200 nM oligonucleotide and 6 ug/ml LIPOFECTIN for four hours. Cells were incubated overnight and harvested with 2 mM EDTA in PBS. Cells were washed in 2% bovine serum albumin, 0.2% sodium azide in D-PBS at 4° C. Cells were centrifuged at 200×g, and the supernatant was decanted. […] Antibodies were incubated with the cells for 30 minutes at 4° C. in the dark, under gentle agitation. Cells were washed again as above and then resuspended in 0.3 ml of FacsFlow buffer with 0.5% formaldehyde. Cells were analyzed on Becton Dickinson FACScan. Results are expressed as percentage of control expression based on mean fluorescence intensity.
Cells were harvested with trypsin at 48 and 72 hours after oligonucleotide treatment and stained with 2 ug/ml CD49d-FITC as in the previous example.
Where backbones are mixed, linkages are shown as "s" for phosphorothioate (P=S or PS) and "o" for phosphodiester (P=O or PO). Where target region is indicated as `M62841,` oligonucleotides are targeted to the promotor region whose sequence is described in GenBank Accession No. M62841. Remaining oligonucleotides are targeted to the sequence described in Genbank Accession No. L12002 and their target sites on the L12002 sequence are indicated.
Target sites refer to nucleotide numbers on the target sequence (GenBank Accession No. L12002) to which the oligonucleotides hybridize.
Oligonucleotides were synthesized as "gapmers" consisting of a 9-nucleotide region of deoxynucleotides flanked by three 2'-O-methoxyethyl(2'-MOE) nucleotides on the 5' end and eight 2'-MOE nucleotides on the 3' end. 2'-MOE nucleotides are shown in bold in the table. Oligonucleotides were synthesized with phosphorothioate backbones throughout, and all cytosines are 5-methylcytosines.

[1] = Table 24, A375 cells, lipofectin, as Example 8

## 24475 (GCCCTTATATGAGAAACA; phosphorothioate, 2'-MOE/deoxy, further chemistry not given here) [compound 24475]
Example 10 assay, dose not stated
  inhibition (Example 10): ≥ 40%
A375 cells
  % Control (integrin α4 protein): 48%
50 nM
  % CONTROL 48 hr: 60%
  % INHIB 48 hr: 40%
  % CONTROL 72 hr: 69%
  % INHIB 72 HR: 31%
100 nM
  % CONTROL 48 hr: 31%
  % INHIB 48 hr: 69%
  % CONTROL 72 hr: 44%
  % INHIB 72 HR: 56%
200 nM
  % CONTROL 48 hr: 30%
  % INHIB 48 hr: 70%
400 nM
  % CONTROL 48 hr: 39%
  % INHIB 48 hr: 61%
  % CONTROL 72 hr: 52%
  % INHIB 72 HR: 48%
Table 4, 10 nM
  % Control: 97%
Table 4, 30 nM
  % Control: 73%
  % Inhib.: 27%
Table 4, 100 nM
  % Control: 84%
  % Inhib.: 16%
Table 4, 300 nM
  % Control: 55%
Table 4, 300 nM (highest dose)
  % Inhib.: 45%

## 24476 (CAATTTGAAAGAAGTCCT; chemistry not given here) [compound 24476]
A375 cells
  % Control (integrin α4 protein): 99%

## 24477 (TCCATTCTCTCAATTTGA; chemistry not given here) [compound 24477]
Dose not stated
  inhibition (Example 11): ≥ 40%
A375 cells
  % Control (integrin α4 protein): 43%
50 nM
  % CONTROL 48 hr: 56%
  % INHIB 48 hr: 44%
  % CONTROL 72 hr: 72%
  % INHIB 72 HR: 28%
100 nM
  % CONTROL 48 hr: 47%
  % INHIB 48 hr: 53%
  % CONTROL 72 hr: 67%
  % INHIB 72 HR: 33%
200 nM
  % CONTROL 48 hr: 34%
  % INHIB 48 hr: 66%
  % CONTROL 72 hr: 44%
  % INHIB 72 HR: 56%
400 nM
  % CONTROL 48 hr: 35%
  % INHIB 48 hr: 65%
  % CONTROL 72 hr: 53%
  % INHIB 72 HR: 47%
Table 6, 10 nM
  % Control: 83%
  % Inhib.: 17%
Table 6, 30 nM
  % Control: 80%
  % Inhib.: 20%
Table 6, 100 nM
  % Control: 63%
  % Inhib.: 37%
Table 6, 300 nM
  % Control: 33%
Table 6, 300 nM (highest dose)
  % Inhib.: 67%

## 24478 (GGCGGGCTGTTTTCCATT; chemistry not given here) [compound 24478]
A375 cells
  % Control (integrin α4 protein): 115%

## 24739 (TTTAGTGACAAAGACGTTAT; phosphorothioate deoxy, further chemistry not given here) [compound 24739]
Table 4, 10 nM
  % Control: 69%
  % Inhib.: 31%
Table 4, 30 nM
  % Control: 67%
  % Inhib.: 33%
Table 4, 100 nM
  % Control: 121%
Table 4, 300 nM
  % Control: 107%

## 24740 (GAAGGCCCCTGGGGAACATT; phosphorothioate deoxy, further chemistry not given here) [compound 24740]
Table 4, 10 nM
  % Control: 122%
Table 4, 30 nM
  % Control: 119%
Table 4, 100 nM
  % Control: 106%
Table 4, 300 nM
  % Control: 88%
Table 4, 300 nM (highest dose)
  % Inhib.: 12%

## 24741 (AGACGTTATGGCTATTCTCT; phosphorothioate deoxy, further chemistry not given here) [compound 24741]
Table 4, 10 nM
  % Control: 109%
Table 4, 30 nM
  % Control: 113%
Table 4, 100 nM
  % Control: 125%
Table 4, 300 nM
  % Control: 127%

## 24742 (TTTAGTGACAAAGACGTTAT; phosphorothioate, 2'-MOE, 5-methyl-C, further chemistry not given here) [compound 24742]
Table 4, 10 nM
  % Control: 112%
Table 4, 30 nM
  % Control: 107%
Table 4, 100 nM
  % Control: 123%
Table 4, 300 nM
  % Control: 128%

## 24743 (GAAGGCCCCTGGGGAACATT; phosphorothioate, 2'-MOE, 5-methyl-C, further chemistry not given here) [compound 24743]
Table 4, 10 nM
  % Control: 96%
Table 4, 30 nM
  % Control: 121%
Table 4, 100 nM
  % Control: 117%
Table 4, 300 nM
  % Control: 105%

## 24744 (AGACGTTATGGCTATTCTCT; phosphorothioate, 2'-MOE, 5-methyl-C, further chemistry not given here) [compound 24744]
Table 4, 10 nM
  % Control: 121%
Table 4, 30 nM
  % Control: 110%
Table 4, 100 nM
  % Control: 118%
Table 4, 300 nM
  % Control: 118%

## 26640 (CCACTGATTGTCTCTCTCTT; phosphorothioate, 2'-MOE/deoxy, further chemistry not given here) [compound 26640]
Dose not stated
  inhibition (Example 11): ≥ 40%
Table 6, 10 nM
  % Control: 91%
Table 6, 30 nM
  % Control: 83%
  % Inhib.: 17%
Table 6, 100 nM
  % Control: 62%
  % Inhib.: 38%
Table 6, 300 nM
  % Control: 35%
Table 6, 300 nM (highest dose)
  % Inhib.: 65%

## 26641 (GAGCTTATTTTCATTCTTTA; phosphorothioate, 2'-MOE/deoxy, further chemistry not given here) [compound 26641]
Dose not stated
  inhibition (Example 11): ≥ 40%
Table 6, 10 nM
  % Control: 88%
  % Inhib.: 12%
Table 6, 30 nM
  % Control: 85%
  % Inhib.: 15%
Table 6, 100 nM
  % Control: 67%
  % Inhib.: 33%
Table 6, 300 nM
  % Control: 31%
Table 6, 300 nM (highest dose)
  % Inhib.: 69%

## 26642 (TCAGGGTGGCTTAAAGAAGC; phosphorothioate, 2'-MOE/deoxy, further chemistry not given here) [compound 26642]
Dose not stated
  inhibition (Example 11): ≥ 40%
Table 6, 10 nM
  % Control: 84%
  % Inhib.: 16%
Table 6, 30 nM
  % Control: 77%
  % Inhib.: 23%
Table 6, 100 nM
  % Control: 56%
  % Inhib.: 44%
Table 6, 300 nM
  % Control: 23%
Table 6, 300 nM (highest dose)
  % Inhib.: 77%
[1]
  % Control: 67%
  % Inhib.: 33%

## 26643 (TTGCCCTTATATGAGAAACA; phosphorothioate, 2'-MOE, 5-methyl-C, further chemistry not given here) [compound 26643]
Table 4, 10 nM
  % Control: 90%
  % Inhib.: 10%
Table 4, 30 nM
  % Control: 95%
Table 4, 100 nM
  % Control: 93%
Table 4, 300 nM
  % Control: 66%
Table 4, 300 nM (highest dose)
  % Inhib.: 34%

## 26644 (TTTCCATTCTCTCAATTTGA; phosphorothioate, 2'-MOE/deoxy, further chemistry not given here) [compound 26644]
Dose not stated
  inhibition (Example 11): ≥ 40%
Table 6, 10 nM
  % Control: 99%
Table 6, 30 nM
  % Control: 94%
Table 6, 100 nM
  % Control: 78%
  % Inhib.: 22%
Table 6, 300 nM
  % Control: 48%
Table 6, 300 nM (highest dose)
  % Inhib.: 52%

## 100025 (antisense CCCAGCACATCGGCTCTCGG; chemistry not given here) [compound 100025]
[1]
  % Control: 97%
  % Inhib.: 3%

## 107229 (antisense AGTCCGCAGAGCGCGGGATG; chemistry not given here) [compound 107229]
[1]
  % Control: 104%

## 107230 (antisense AGACTCGCGTCCTGGCCCGG; chemistry not given here) [compound 107230]
[1]
  % Control: 73%
  % Inhib.: 27%

## 107231 (antisense GTGCGGAGGCGCAGGGCCGG; chemistry not given here) [compound 107231]
[1]
  % Control: 115%

## 107232 (antisense CCGGTTTCTGCCGCCGAGCC; chemistry not given here) [compound 107232]
[1]
  % Control: 83%
  % Inhib.: 17%

## 107233 (antisense ATGCGACGGTTGGCCAACGG; chemistry not given here) [compound 107233]
[1]
  % Control: 57%
  % Inhib.: 43%

## 107234 (antisense CTTCCCAAGCCATGCGCTCT; chemistry not given here) [compound 107234]
[1]
  % Control: 47%

## 107235 (antisense TCGCTTCCCAAGCCATGCGC; chemistry not given here) [compound 107235]
[1]
  % Control: 36%

## 107236 (antisense GCCTCGCTTCCCAAGCCATG; chemistry not given here) [compound 107236]
[1]
  % Control: 43%

## 107237 (antisense CGCGCCTCGCTTCCCAAGCC; chemistry not given here) [compound 107237]
[1]
  % Control: 46%

## 107238 (antisense TCCTTGCCCTTATATGAGAA; chemistry not given here) [compound 107238]
[1]
  % Control: 49%

## 107239 (antisense ACTTCCTTGCCCTTATATGA; chemistry not given here) [compound 107239]
[1]
  % Control: 29%
